Results as given in patent US12612389B2, “Benzofuran-based N-acylhydrazone derivative and pharmaceutical composition comprising same” (KOREA RESEARCH INSTITUTE OF BIOSCIENCE AND BIOTECHNOLOGY, priority 2019, dated 2026).

How the values were obtained:
[1] = Mouse toxicity test (repeated intraperitoneal injection); assay type: in vivo, ICR mice; conditions: for Survival rate (%): n = 3, i.p., 10 injections
Experimental: All animal experiments and procedures were performed in accordance with ethical standards under the approval of the Institutional Animal Care and Use Committee (IACUC) of the Korea Research Institute of Bioscience and Biotechnology (KRIBB). ICR mice were supplied by Daehan Biolink Co., Ltd (Korea). All mice were housed in sterile animal isolation facilities. All in vivo experiments were performed using 6-8 week old mice.
Acute toxicity test of the compound of Example 4 was performed at the Laboratory Animal Resource Center of the Korea Research Institute of Bioscience and Biotechnology. ICR mice (6-8 weeks old) were acclimatized for up to 10 days before the experiment, and then 3 mice were injected with the drugs. The Example compound was mixed with a solvent and injected intraperitoneally, and after drug treatment, clinical symptoms were observed twice within 24 hours, and additional drug treatment was performed up to 10 times as scheduled. The mice were weighed 5 times as scheduled.
(§1) 100 mg/kg of the compound of Example 4 was dissolved in a solvent (N′,N′-dimethylacetamide/Kolliphor/2-hydroxypropyl-β-cyclodextrin (10% concentration of distilled water solution)=40:10:50). When the concentration became thicker than that, the reaction solution immediately precipitated. The solution in which the compound of Example 4 was dissolved from 12.5 mg/kg to 100 mg/kg was injected into the peritoneal cavity of mice 10 times […] in a volume of 100 μL (see FIG. 8A). All animals survived to the final day, and no particular problems were seen by visual observation (see Table 13 and FIG. 8A).

K562 [2] = test: Anti-proliferative activity test in cancer cells exhibiting multidrug resistance (MTT), parent line; assay type: cell-based; conditions: Homo sapiens, 96 h, 4 days
Experimental: (§2) HeLa cells (American Type Culture Collection: ATCC, USA), a human cervical cancer cell line, were seeded in a 96-well plate at 3×10^3 cells/well, and the cells were then treated with compounds of Examples or Comparative Example according to the present invention and grown for 2 days. Then, MTT (3-(4,5-dimethylthiazol-2-yl)-2,5-diphenyltetrazolium bromide) reagent was added at 10 μL/well. […] The data shown in Table below are mean values of results obtained by repeating the analysis twice. Specifically, K562 and MCF7 (Bio Evaluation Center, Korea Research Institute of Bioscience and Biotechnology, Korea) and multidrug-resistant cell lines of each of these cell lines, i.e., K562/ADR and MCF7/ADR (Bio Evaluation Center, Korea Research Institute of Bioscience and Biotechnology, Korea), were cultured on microtiter plates (1-3×10^3 cells/well). […] The data shown in Table below are mean values of results obtained by repeating the analysis three times.

MCF7 = test: as above; assay type: cell-based; conditions: Homo sapiens, 96 h, 4 days
Experimental: as §2

[3] = design: species or system ICR mice; conditions: mouse, in vivo
Experimental: The experimental apparatus was constructed similarly to that used in the paper described by Reyes-Mendez et al. (2018), and was composed of a black acrylic fence (floor area of […] and wall height of 40 cm). The floor surface was divided into 25 squares each having a size of 10×10 cm. For this experiment, mice were placed on the center of the floor and spontaneous activities thereof were recorded for 7 minutes from the top. After the experiment, the experimental apparatus was thoroughly washed with 30% ethanol. Three observers, unaware whether the drug was treated or not, analyzed the first 5 minutes of recorded video to count the number of squares the mouse passed, and add up the time during which the mouse stayed without moving, and the number of times the mouse was groomed or shaken, and the like. Based on the contents analyzed above, the time during which the mouse stayed in the central zone, speed, and total moving distance were calculated. A case where the two-tailed probability value was less than 0.05 (p<0.05) was considered statistically significant.
No statistically significant experimental groups were found as results of open-field experiments in mice.

MEF (mouse) = test: Cytotoxicity in normal cells (MTT); assay type: cell-based; conditions: 96 h, Normal cell, 4 days
K562 [4] = test: Anti-proliferative activity in other cancer cell lines (MTT); assay type: cell-based; conditions: Homo sapiens, 96 h, Marrow (leukemia), 4 days
Experimental: (§3) HeLa cells (American Type Culture Collection: ATCC, USA), a human cervical cancer cell line, were seeded in a 96-well plate at 3×10^3 cells/well, and the cells were then treated with compounds of Examples or Comparative Example according to the present invention and grown for 2 days. Then, MTT (3-(4,5-dimethylthiazol-2-yl)-2,5-diphenyltetrazolium bromide) reagent was added at 10 μL/well. After 2 hours, absorbance was measured at “OD 450” and statistical values were obtained using Prism™6 program. The data shown in Table below are mean values of results obtained by repeating the analysis twice.
(§4) Specifically, various cancer cell lines were cultured in a microtiter plate (1-3×10^3 cells/well), treated with the compound of Example 4 according to the present invention, and cultured for 4 days. Cytotoxicity was tested by MTT assay in the same manner as in Experimental Example 1-1, and IC50 was obtained by a log-dose response curve. The data shown in Table below are mean values of results obtained by repeating the analysis three times.

SNB75 = test: as above; assay type: cell-based; conditions: Homo sapiens, SNB-75, 96 h, CNS, 4 days
Experimental: as §3, §4

786-O = test: as above; assay type: cell-based; conditions: Homo sapiens, 786-0, 96 h, Kidney, 4 days
Experimental: as §3, §4

Hep3B = test: as above; assay type: cell-based; conditions: Homo sapiens, 96 h, Liver, 4 days
Experimental: as §3, §4

NCI-H1299 = test: as above; assay type: cell-based; conditions: Homo sapiens, 96 h, Lung, 4 days
Experimental: as §3, §4

DU145 = test: as above; assay type: cell-based; conditions: Homo sapiens, DU-145, 96 h, Prostate, 4 days
Experimental: as §3, §4

HCT 116 = test: as above; assay type: cell-based; conditions: Homo sapiens, 96 h, Colon, 4 days
Experimental: as §3, §4

RPMI-8226 = test: as above; assay type: cell-based; conditions: Homo sapiens, 96 h, Marrow (leukemia), 4 days
Experimental: as §3, §4

CCRF-CEM = test: as above; assay type: cell-based; conditions: Homo sapiens, 96 h, Peripheral blood, 4 days
Experimental: as §3, §4

MOLT4 = test: as above; assay type: cell-based; conditions: Homo sapiens, MOLT-4, 96 h, Marrow (leukemia), 4 days
Experimental: as §3, §4

[5] = Solubility of the compound in the toxicity-test solvent; assay type: physicochemical; conditions: N′,N′-dimethylacetamide/Kolliphor/2-hydroxypropyl-β-cyclodextrin (10% in distilled water)=40:10:50; thicker solutions precipitated
Experimental: as §1

What does the source list for `CCOCCn1c(Cl)c(/C=N/NC(=O)c2cc3cc(C)ccc3o2)c2ccccc21` [Example 4, (E)-N′-[(2-chloro-1-(2-ethoxyethyl)-1H-indol-3-yl]methylene}-5-methylbenzofuran-2-carbohydrazide]?
Survival rate (%) ([1]; 12.5 mg/kg): 100%; Survival rate (%) ([1]; 25 mg/kg): 100%; Survival rate (%) ([1]; 50 mg/kg): 100%; Survival rate (%) ([1]; 100 mg/kg): 100%; toxicity on dissection (size and morphology of each organ) ([1]; intraperitoneally 10 times at 100 mg/kg): did not induce serious toxicity; IC50 (K562 [2]): 350 nM; IC50 (MCF7): 822 nM; effect on behavior of mice in open field (time in center zone, speed, total moving distance) [3]: did not affect the behavior of mice in all groups; IC50 (MEF (mouse)): 4010 ± 4580 nM; IC50 (K562 [4]): 470 ± 12 nM; IC50 (SNB75): 390 ± 30 nM; IC50 (786-O): 130 ± 50 nM; IC50 (Hep3B): 190 ± 50 nM; IC50 (NCI-H1299): 560 ± 150 nM; IC50 (DU145): 490 ± 90 nM; IC50 (HCT 116): 450 ± 220 nM; IC50 (RPMI-8226): 520 ± 130 nM; IC50 (CCRF-CEM): 340 ± 20 nM; IC50 (MOLT4): 300 ± 10 nM; highest concentration dissolved without precipitation [5]: 100 mg/kg
